Measurements: patent US7833331B2, “Non-toxic corrosion-protection pigments based on cobalt” (University of Dayton, priority 2007, dated 2010)
Several values for one entry are separate records, joined by “and”; a condition that tells them apart may be missing. Equal entries are not always repeated.

How the values were obtained:
[1] = ASTM B-117 static salt fog test of PVB wash primer with pigment, rated by ASTM D-1654; conditions: ASTM D-1654 rating; for 2024-T3 B-117 Proc. A / 7075-T6 B-117 Proc. A: failure at scribe; for 2024-T3 B-117 Proc. B / 7075-T6 B-117 Proc. B: failure in unscribed areas
Protocol: (§1) The corrosion inhibiting performance of CoIII pigments was evaluated by incorporating them into primer paint formulations. The acid wash primer paint formulations called out in DoD-P-15328 [Primer (Wash), Pretreatment (Formulation No. 117 for Metals)] were used to test the various pigments. The wash primer is composed of a resin, an acid, a corrosion inhibiting pigment, powdered talc, and carbon lampblack. The acid content of this wash primer provides a rigorous initial test of the stability and performance of the pigments. Other, more benign, polymer-based binder and resin systems might not separate the compounds based on their performance as effectively or as rapidly. The base solution for the wash primer in this specification was prepared by mixing 88.3 grams of isopropanol, 31.3 grams of n-butanol, and 3.8 grams of deionized water with 14 grams of poly(vinyl butyral) resin (PVB) (Monsanto Butvar B-90TM). PVB was used exclusively throughout testing to avoid preparation and compositional complications during analysis of pigment performance. However, the invention is not limited to the use of PVB. Acid diluent was prepared by mixing 70 grams of 85% phosphoric acid, 63 grams of deionized water, and 247 grams of isopropanol. Finely-ground pigment powder was measured out and added to 13.74 grams of the base solution for each paint to be tested. A small amount (0.2 g) of powdered talc (magnesium silicate) “filler” was added. Lampblack was not added to these samples. These components were mixed thoroughly by hand and 3.8 g of phosphoric acid diluent added with further mixing. This rough processing allowed direct comparisons of pigment performance to be made without complications due to powder treatments, modifications, and additives. […] This is not the conventional paint application procedure for aluminum alloys. Under normal service conditions, aluminum alloys are first subjected to a hexavalent chromium-containing conversion coating prior to primer application. However, the conversion coating was omitted so that the performance of the pigment alone could be evaluated and not the synergistic effects of hexavalent chromium (in the conversion coating) or even of barrier films (in the phosphate or anodized coatings). Multiple samples of specific pigment compositions were prepared and tested. […] The chromate pigments were prepared identically to those used to test CoIII composition variations. PVB wash primers containing various pigment formulations were evaluated by exposing them to static salt fog (ASTM B-117) and cyclic Prohesiomm (ASTM G-85.5) accelerated corrosion tests. ASTM B-117 is a traditional corrosion “proof” test that has little relation to a real working environment. This accelerated corrosion test exposes samples to a constant salt-water fog and is a de facto test of solubility for corrosion inhibitors. […] This is particularly true of inhibitors and compounds that have not been fully optimized with respect to solubility. ASTM G-85.5 (ProhesionTM) is a cyclic corrosion test that more closely resembles real working environments. This accelerated corrosion test exposes samples to a cycle of fog of dilute salt and ammonium sulfate at room temperature followed by forced-air drying at an elevated temperature. This is a more realistic test of the ability of a compound to inhibit corrosion. Results of these tests can be combined to gain insight into how a particular coating or compound will perform relative to a standard as well as helping identify strengths and weaknesses in the performance of the material. ASTM D-1654 evaluation standard for painted or coated specimens subjected to corrosive environments was used to evaluate the performance of the coatings. After the paint dried for 24 hours, each plate was scribed with an X and the plate edges were sealed with PVC tape to eliminate corrosion edge effects. Two visual observations are associated with this rating test. […]

[2] = ASTM G-85.5 cyclic Prohesion test of PVB wash primer with pigment, rated by ASTM D-1654; conditions: ASTM D-1654 rating; for 2024-T3 G-85 Proc. A / 7075-T6 G-85 Proc. A: failure at scribe; for 2024-T3 G-85 Proc. B / 7075-T6 G-85 Proc. B: failure in unscribed areas
Protocol: as §1

[3] = 144 hours, inhibitor conc. 1.49 × 10^−3 M (20% of Cr)
[4] = 139 hours, inhibitor conc. 3.72 × 10^−3 M (50% of Cr)
[5] = 139 hours, inhibitor conc. 1.49 × 10^−3 M (20% of Cr)
[6] = 139 hours, inhibitor conc. 7.44 × 10^−4 M (10% of Cr)
[7] = 117 hours, inhibitor conc. 1.49 × 10^−3 M (20% of Cr)

Row | Substance | 2024-T3 B-117 Proc. A [1, 3] | 7075-T6 B-117 Proc. A [1, 3] | 2024-T3 B-117 Proc. B [1, 3] | 7075-T6 B-117 Proc. B [1, 3] | 2024-T3 G-85 Proc. A [2, 3] | 7075-T6 G-85 Proc. A [2, 3] | 2024-T3 G-85 Proc. B [2, 3] | 7075-T6 G-85 Proc. B [2, 3] | 2024-T3 B-117 Proc. A [1, 5] | 7075-T6 B-117 Proc. A [1, 5] | 2024-T3 B-117 Proc. B [1, 5] | 7075-T6 B-117 Proc. B [1, 5] | 2024-T3 G-85 Proc. A [2, 5] | 7075-T6 G-85 Proc. A [2, 5] | 2024-T3 G-85 Proc. B [2, 5] | 7075-T6 G-85 Proc. B [2, 5] | further results
1 | zinc 10-molybdocobaltate | 7 | 7 | 7 | 7 and 5 | 6 and 7 | 7 | 7 and 6 | 6 | – | – | – | – | – | – | – | – | –
2 | barium 10-molybdocobaltate | 7 | 6 | 6 | 5 | 7 | 7 | 7 | 7 | – | – | – | – | – | – | – | – | –
3 | magnesium periodatocobaltate | – | – | – | – | – | – | – | – | – | – | – | – | – | – | – | – | 2024-T3 B-117 Proc. A [1, 4]: 7; 7075-T6 B-117 Proc. A [1, 4]: 7; 2024-T3 B-117 Proc. B [1, 4]: 6; 7075-T6 B-117 Proc. B [1, 4]: 6; 2024-T3 G-85 Proc. A [2, 4]: 7 and 8; 7075-T6 G-85 Proc. A [2, 4]: 7; 2024-T3 G-85 Proc. B [2, 4]: 7 and 8; 7075-T6 G-85 Proc. B [2, 4]: 7
4 | strontium 10-molybdocobaltate | 6 and 7 | 7 and 6 | 5 | 6 and 5 | 7 | 7 | 6 | 6 | – | – | – | – | – | – | – | – | –
5 | calcium 10-vanadatocobaltate | – | – | – | – | – | – | – | – | 8 | 7 | 7 | 6 | 7 and 8 | 7 | 6 | 6 | –
6 | barium 11-tungstophosphocobaltate | – | – | – | – | – | – | – | – | – | – | – | – | – | – | – | – | 2024-T3 B-117 Proc. A [1, 6]: 7; 7075-T6 B-117 Proc. A [1, 6]: 7; 2024-T3 B-117 Proc. B [1, 6]: 6; 7075-T6 B-117 Proc. B [1, 6]: 6; 2024-T3 G-85 Proc. A [2, 6]: 7; 7075-T6 G-85 Proc. A [2, 6]: 7; 2024-T3 G-85 Proc. B [2, 6]: 7 and 6; 7075-T6 G-85 Proc. B [2, 6]: 6
7 | zinc 10-vanadatocobaltate | – | – | – | – | – | – | – | – | 9 | 8 and 9 | 9 and 8 | 8 and 9 | 7 | 7 | 6 | 6 | –
8 | calcium 6-molybdocobaltate | – | – | – | – | – | – | – | – | – | – | – | – | – | – | – | – | 2024-T3 B-117 Proc. A [1, 7]: 7 and 6; 7075-T6 B-117 Proc. A [1, 7]: 7; 2024-T3 B-117 Proc. B [1, 7]: 5 and 6; 7075-T6 B-117 Proc. B [1, 7]: 6; 2024-T3 G-85 Proc. A [2, 7]: 8; 7075-T6 G-85 Proc. A [2, 7]: 8; 2024-T3 G-85 Proc. B [2, 7]: 7; 7075-T6 G-85 Proc. B [2, 7]: 8
9 | magnesium 10-molybdocobaltate | 7 | 7 | 6 | 6 | 9 and 8 | 9 | 8 and 7 | 7 and 8 | – | – | – | – | – | – | – | – | –
10 | sodium 10-vanadatocobaltate | – | – | – | – | – | – | – | – | 9 | 6 | 8 | 7 | 8 | 7 | 7 | 6 | –
11 | calcium 10-molybdocobaltate | 7 | 7 and 6 | 6 | 6 | 9 | 8 and 9 | 8 | 7 and 8 | – | – | – | – | – | – | – | – | –
12 | magnesium 10-vanadatocobaltate | – | – | – | – | – | – | – | – | 7 and 6 | 7 | 7 | 7 | 8 and 9 | 8 and 9 | 7 and 8 | 7 and 8 | –
13 | strontium 10-vanadatocobaltate | – | – | – | – | – | – | – | – | 7 | 6 | 6 | 5 | 7 | 6 | 6 | 5 | –
